Results as given in patent US20240415808A1, “Dosage Regimen for Fexuprazan Injection Composition” (Daewoong Pharmaceutical Co., Ltd., priority 2021, published 2024).
“And” between values parts separate entries of the source, which are not always exact repeats. Equal values may be shown once.

Key:
[1] = tested on: indomethacin-induced bleeding gastric ulcer; experiment: indomethacin-induced bleeding gastric ulcer model using male rats; format: in vivo, rat; conditions: for Ulcer index (%): 30 min before indomethacin 80 mg/kg oral, autopsy 5 h; for Ulcer index (%) / Gastric erosion state / Gastric hemorrhage state: mean ± SD; for Gastric erosion state / Gastric hemorrhage state: histopathological examination
Experimental: In order to evaluate the efficacy of fexuprazan against bleeding gastric ulcers, an indomethacin-induced bleeding gastric ulcer model using male rats was used.
Specifically, the previously prepared 1-(5-(2,4-difluorophenyl)-1-((3-fluorophenyl)sulfonyl)-4-methoxy-1H-pyrrol-3-yl)-N-methylmethanamine (hereinafter referred to as ‘fexuprazan’) hydrochloride was dissolved in a solution containing 30 wt. % of polyethylene glycol (Polyethylene Glycol 400) polymer in physiological saline. The concentration was adjusted so that 0, 0.1, 0.5, 1, 2 mg/kg based on fexuprazan weight could be administered to each test animal in a liquid volume of 1 mL/kg, and then each test animal was administered through the tail vein as a single dose. In addition, 1 mg/kg of esomeprazole magnesium trihydrate, which is a positive control, based on esomeprazole weight was administered as a single dose through the tail vein in test animals. After 30 minutes, 80 mg/kg of indomethacin was orally administered as a single dose to each test animal to induce gastric bleeding and ulceration. An autopsy was performed 5 hours after administration of indomethacin, and the stomach was removed. Then, the ulcer index (%) was measured using an image program (Leica Application Suite V4), and gastric hemorrhage and erosion state were evaluated through histopathological examination.

[2] = pharmacokinetic experiment in male rats (oral and tail vein); format: in vivo, rat
Experimental: Methylcellulose was dissolved in physiological saline to prepare a solution containing methylcellulose at a concentration of 0.5 wt %, and then the previously prepared fexuprazan hydrochloride was added thereto to prepare a composition with Fexuprazan at a concentration of 1 mg/mL. The composition prepared above was orally administered to male rats at a dose of 2 mg/kg in a liquid volume of 2 mL/kg depending on the body weight of the individual, and then blood was collected using an orbital blood collection method at 0.25, 0.5, 1, 2, 4, 6, 8, and 24 hours, and centrifuged at 10,000 rpm for 5 minutes. Plasma was collected, analyzed by HPLC-MS/MS, and pharmacokinetic parameters were calculated.
Then, methylcellulose was dissolved in physiological saline to prepare a solution containing methylcellulose at a concentration of 0.5 wt,%, and then the previously prepared fexuprazan hydrochloride was added thereto to prepare a composition with fexuprazan at a concentration of 1 mg/mL. The composition was administered through the tail vein in male rats at a dose of 1 mg/kg in a liquid volume of 1 mL/kg depending on the body weight of the individual. Blood was collected by the same method as in oral administration at 0.083, 0.25, 0.5, 1, 2, 4, 6, 8, and 24 hours, and then analyzed.

[3] = tested on: acidity (pH) in the gastrointestinal tract; experiment: single intravenous dose-escalation clinical trial, acidity (pH) in the gastrointestinal tract; format: in vivo, human; conditions: healthy adults; for Fraction time pH ≥ 4 (%) / Fraction time pH ≥ 6 (%): 24 hours after medication
Experimental: In order to confirm the safety/PK/PD of the compound of the present invention during intravenous administration, the clinical trial was designed with random assignment, double-blind, placebo-controlled, single dose, and stepwise dose-escalation in healthy adults (Korean/Chinese) between the ages of 19 and 50.
A stabilizer (200 mg), a freeze-drying auxiliary agent (200 mg), and the previously prepared fexuprazan hydrochloride (40 mg based on fexuprazan weight) were dissolved in water for injection (4 mL), and an appropriate amount of acid was added thereto to adjust the pH to 4.0. The prepared solution was put into a vial, dried by a freeze-drying method, and prepared as a freeze-drying agent.
The freeze-dried composition prepared as above was used, but a total of 28 subjects of 4, 8, 8, and 8 subjects each were enrolled for four dose groups (10 mg, 20 mg, 40 mg, and 80 mg) based on fexuprazan weight, and each group was randomly assigned to test or control groups in the order that they passed the screening criteria at a ratio of 3:1. All test subjects completed safety, pharmacokinetic, and pharmacodynamic evaluations according to the planned clinical trial schedule.
The medication was performed in the morning, and the patient was discharged from the hospital on the third day of medication. Subsequently, a close-out visit was performed between the 8th and 11th day of medication.
(§1) Testing of the acidity (pH) in the gastrointestinal tract and gastric secretion promoting hormone gastrin were performed from 24 hours before medication to 24 hours after medication. Blood collection for pharmacokinetics and urine collection for pharmacokinetics were performed for 48 hours from the time of medication.

[4] = oral vs intravenous two-way crossover clinical trial, safety; format: in vivo, human; conditions: healthy adults, single 40 mg oral and 40 mg intravenous
Source text: Therefore, in order to compare the safety/PK/PD of the compound of the present invention during single intravenous administration and during single oral administration and derive the bioavailability, the clinical trial was designed as a randomized, open-label, single-dose, two-period, two-way crossover trial in healthy adults. The selection/exclusion criteria were the same as in Experimental Example 4. A total of 8 subjects were enrolled, and four subjects each were randomly assigned to sequence group 1 or sequence group 2 in the order in which they passed the screening criteria. All test subjects completed safety, pharmacokinetic, and pharmacodynamic evaluations according to the planned clinical trial schedule.
as §1

[5] = 0.1 mg/kg single dose tail vein
[6] = 0.5 mg/kg single dose tail vein

With `CNCc1cn(S(=O)(=O)c2cccc(F)c2)c(-c2ccc(F)cc2F)c1OC` [Fexuprazan, 1-(5-(2,4-difluorophenyl)-1-((3-fluorophenyl)sulfonyl)-4-methoxy-1H-pyrrol-3-yl)-N-methylmethanamine] the “Ulcer index (%)” value [1, 5] was 9.2 ± 2.3^ %, the Gastric erosion state [1, 5] was 2.9 ± 1.2 and the Gastric hemorrhage state [1, 5] was 1.5 ± 1.6^. For the same compound, the “Ulcer index (%)” value [1, 6] was 4.0 ± 1.8 %, the Gastric erosion state [1, 6] was 1.3 ± 1.0 and the Gastric hemorrhage state [1, 6] was 0.5 ± 0.8. The “Ulcer index (%)” value ([1]; 1 mg/kg single dose tail vein) was 4.2 ± 2.5 %, the Gastric erosion state ([1]; 1 mg/kg single dose tail vein) was 0.8 ± 0.7 and the Gastric hemorrhage state ([1]; 1 mg/kg single dose tail vein) was 0.3 ± 0.5. For the same compound, the “Ulcer index (%)” value ([1]; 2 mg/kg single dose tail vein) was 4.2 ± 1.5 %, the Gastric erosion state ([1]; 2 mg/kg single dose tail vein) was 0.3 ± 0.5 and the Gastric hemorrhage state ([1]; 2 mg/kg single dose tail vein) was 0.3 ± 0.5. It also gave a minimum effective dose ([1]; single dose tail vein, ulcer index, gastric hemorrhage and erosion state vs excipient group) of 0.5 mg/kg, a BA ([2]; PO 2 mg/kg vs IV 1 mg/kg) of 24.7% and an AUC(0-t) ([2]; rat, plasma, IV 1 mg/kg) of 143 ± 38 ng·h/mL. It also gave a Vd ([2]; rat, plasma, IV 1 mg/kg) of 20.2 ± 5.2 L/kg, a clearance ([2]; rat, plasma, IV 1 mg/kg) of 114 ± 29 mL/min/kg and a half-life ([2]; rat, plasma, IV 1 mg/kg) of 2.06 ± 0.25 h. The AUC(0-t) ([2]; rat, plasma, PO 2 mg/kg) was 70.9 ± 22.4 ng·h/mL, the Cmax ([2]; rat, plasma, PO 2 mg/kg) was 23.8 ± 10.7 ng/mL and the Tmax ([2]; rat, plasma, PO 2 mg/kg) was 0.833 ± 0.289 h. The half-life ([2]; rat, plasma, PO 2 mg/kg) was 1.74 ± 0.16 h, the “time during which the pH maintained above 6 for 12 hours” value ([3]; intravenous administration of 40 mg, 12 hours) was at least 50% and the “Mean pH” value ([3]; single intravenous 10 mg) was 2.7 ± 0.1. For the same compound, the “Median pH” value ([3]; single intravenous 10 mg) was 2.1 ± 0.2, the “Fraction time pH ≥ 4 (%)” value ([3]; single intravenous 10 mg) was 20.4 ± 2.6% and the “Fraction time pH ≥ 6 (%)” value ([3]; single intravenous 10 mg) was 2.9 ± 2.0%. The “Mean pH” value ([3]; single intravenous 20 mg) was 3.9 ± 0.8, the “Median pH” value ([3]; single intravenous 20 mg) was 3.8 ± 1.3 and the “Fraction time pH ≥ 4 (%)” value ([3]; single intravenous 20 mg) was 46.7% and 46.7 ± 19.0%. For the same compound, the “Fraction time pH ≥ 6 (%)” value ([3]; single intravenous 20 mg) was 16.7 ± 14.6%, the “Mean pH” value ([3]; single intravenous 40 mg) was 4.9 ± 0.3 and the “Median pH” value ([3]; single intravenous 40 mg) was 5.4 ± 0.6. The “Fraction time pH ≥ 4 (%)” value ([3]; single intravenous 40 mg) was 71.0 ± 10.3%, the “Fraction time pH ≥ 6 (%)” value ([3]; single intravenous 40 mg) was 38.3 ± 9.0% and the “Mean pH” value ([3]; single intravenous 80 mg) was 5.9 ± 0.4. The “Median pH” value ([3]; single intravenous 80 mg) was 6.2 ± 0.3, the “Fraction time pH ≥ 4 (%)” value ([3]; single intravenous 80 mg) was 92.9 ± 4.8% and the “Fraction time pH ≥ 6 (%)” value ([3]; single intravenous 80 mg) was 59.65% and 59.7 ± 15.7%. For the same compound, the “serious abnormalities or side effects” value [4] was “no serious abnormalities or side effects were observed”.
